The supplement of paper PMC4932681

How the values were obtained:
ZR-75-1 [1] = assay: relative IC50 (midpoint of fitted logistic curve, plateau may be below 50% inhibition; CellTiter-Glo viability); higher = less potent; settings: 72 h
How it was run: (§1)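 Breast cancer cell lines and their resistant derivatives were seeded into 384-well plates holding FO2Baq library drugs at five concentrations spanning a 10 000-fold range. Resistant lines were in medium with 1 μM of the selecting drug. Cells were incubated 72 h at 37 °C, and CellTiter-Glo viability was read on a PHERAstar and normalised to vehicle-only and positive controls. Drug sensitivity score, relative IC50 (curve midpoint) and top-dose inhibition came from logistic dose–response fits (Breeze pipeline).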

BT-474 [2] = assay: as above; settings: 72 h
How it was run: as §1

T-47D Tam2 [3] = assay: as above; settings: 4-OH-tamoxifen in medium 1 µM; 72 h
How it was run: as §1

MCF-7 Tam1 [4] = assay: as above; settings: 4-OH-tamoxifen in medium 1 µM; 72 h
How it was run: as §1

ZR-75-1 Tam2 [5] = assay: as above; settings: 4-OH-tamoxifen in medium 1 µM; 72 h
How it was run: as §1

MCF-7 [6] = assay: as above; settings: 72 h
How it was run: as §1

T-47D [7] = assay: as above; settings: 72 h
How it was run: as §1

BT-474 Tam2 [8] = assay: as above; settings: 4-OH-tamoxifen in medium 1 µM; 72 h
How it was run: as §1

ZR-75-1 Tam1 [9] = assay: as above; settings: 4-OH-tamoxifen in medium 1 µM; 72 h
How it was run: as §1

ZR-75-1 [10] = assay: drug sensitivity score (DSS) (DSS (dimensionless)); higher = more sensitive; extreme values may be limits of the assay; settings: 72 h
How it was run: as §1

T-47D Tam1 [11] = assay: as above; settings: 4-OH-tamoxifen in medium 1 µM; 72 h
How it was run: as §1

BT-474 [12] = assay: as above; settings: 72 h
How it was run: as §1

T-47D Tam2 [13] = assay: as above; settings: 4-OH-tamoxifen in medium 1 µM; 72 h
How it was run: as §1

MCF-7 Tam1 [14] = assay: as above; settings: 4-OH-tamoxifen in medium 1 µM; 72 h
How it was run: as §1

ZR-75-1 Tam2 [15] = assay: as above; settings: 4-OH-tamoxifen in medium 1 µM; 72 h
How it was run: as §1

MCF-7 [16] = assay: as above; settings: 72 h
How it was run: as §1

T-47D [17] = assay: as above; settings: 72 h
How it was run: as §1

BT-474 Tam2 [18] = assay: as above; settings: 4-OH-tamoxifen in medium 1 µM; 72 h
How it was run: as §1

BT-474 Tam1 [19] = assay: as above; settings: 4-OH-tamoxifen in medium 1 µM; 72 h
How it was run: as §1

ZR-75-1 Tam1 [20] = assay: as above; settings: 4-OH-tamoxifen in medium 1 µM; 72 h
How it was run: as §1

BT-474 Tam1 [21] = assay: relative IC50 (midpoint of fitted logistic curve, plateau may be below 50% inhibition; CellTiter-Glo viability); higher = less potent; settings: 4-OH-tamoxifen in medium 1 µM; 72 h
How it was run: as §1

T-47D Tam1 [22] = assay: as above; settings: 4-OH-tamoxifen in medium 1 µM; 72 h
How it was run: as §1

Compound | relative IC50 (BT-474 [2]; 4-OH-tamoxifen in medium 0 µM) [µM] | relative IC50 (BT-474 [2]; 4-OH-tamoxifen in medium 1 µM) [µM] | relative IC50 (T-47D Tam2 [3]) [µM] | relative IC50 (MCF-7 Tam1 [4]) [µM] | relative IC50 (MCF-7 [6]; 4-OH-tamoxifen in medium 0 µM) [µM] | relative IC50 (MCF-7 [6]; 4-OH-tamoxifen in medium 1 µM) [µM] | relative IC50 (T-47D [7]; 4-OH-tamoxifen in medium 0 µM) [µM] | relative IC50 (BT-474 Tam2 [8]) [µM] | relative IC50 (T-47D [7]; 4-OH-tamoxifen in medium 1 µM) [µM] | relative IC50 (BT-474 Tam1 [21]) [µM] | relative IC50 (T-47D Tam1 [22]) [µM] | relative IC50 (ZR-75-1 [1]; 4-OH-tamoxifen in medium 0 µM) [µM] | relative IC50 (ZR-75-1 [1]; 4-OH-tamoxifen in medium 1 µM) [µM] | relative IC50 (ZR-75-1 Tam2 [5]) [µM] | relative IC50 (ZR-75-1 Tam1 [9]) [µM] | drug sensitivity score (ZR-75-1 [10]; 4-OH-tamoxifen in medium 0 µM) | drug sensitivity score (ZR-75-1 [10]; 4-OH-tamoxifen in medium 1 µM) | drug sensitivity score (T-47D Tam1 [11]) | drug sensitivity score (BT-474 [12]; 4-OH-tamoxifen in medium 0 µM) | drug sensitivity score (BT-474 [12]; 4-OH-tamoxifen in medium 1 µM) | drug sensitivity score (T-47D Tam2 [13]) | drug sensitivity score (MCF-7 Tam1 [14]) | drug sensitivity score (ZR-75-1 Tam2 [15]) | drug sensitivity score (MCF-7 [16]; 4-OH-tamoxifen in medium 0 µM) | drug sensitivity score (MCF-7 [16]; 4-OH-tamoxifen in medium 1 µM) | drug sensitivity score (T-47D [17]; 4-OH-tamoxifen in medium 0 µM) | drug sensitivity score (T-47D [17]; 4-OH-tamoxifen in medium 1 µM) | drug sensitivity score (BT-474 Tam2 [18]) | drug sensitivity score (BT-474 Tam1 [19]) | drug sensitivity score (ZR-75-1 Tam1 [20])
CCN(CC)CCNC(=O)c1c(C)[nH]c(/C=C2\C(=O)Nc3ccc(F)cc32)c1C | > 1 | 0.276 | > 1 | > 1 | > 1 | > 1 | > 1 | > 1 | – | – | – | > 1 | > 1 | > 1 | > 1 | 0 | 0 | 0.199 | 0 | 1.81 | 0 | 0 | 0 | 0 | 0 | 0 | 0.383 | 0 | 0.118 | 0
CCC1(c2ccc(N)cc2)CCC(=O)NC1=O (centres undefined) [Aminoglutethimide] | > 10 | – | > 10 | > 10 | > 10 | – | > 10 | > 10 | – | > 10 | – | – | > 10 | > 10 | > 10 | 0 | 0 | 0 | 0 | 0.6 | 0 | 0 | 0 | 0 | 5.49 | 0 | 0.781 | 0 | 0 | 0
CC(=O)O[C@@]12CO[C@@H]1C[C@H](O)[C@@]1(C)C(=O)[C@H](O)C3=C(C)[C@@H](OC(=O)[C@H](O)[C@@H](NC(=O)OC(C)(C)C)c4ccccc4)C[C@@](O)([C@@H](OC(=O)c4ccccc4)[C@H]21)C3(C)C [Docetaxel] | 0.00376 | 0.00383 | 0.00421 | > 1 | 0.00123 | – | 0.00176 | – | > 1 | 0.00672 | – | – | > 1 | > 1 | > 1 | 0.389 | 0 | 8.38 | 14 | 17.7 | 10.8 | 0 | 0 | 7.56 | 5.79 | 15.4 | 0 | 3.99 | 10 | 0
COc1cc([C@@H]2c3cc4c(cc3[C@@H](O[C@@H]3O[C@@H]5CO[C@@H](C)O[C@H]5[C@H](O)[C@H]3O)[C@H]3COC(=O)[C@H]23)OCO4)cc(OC)c1O [Etoposide] | > 10 | – | > 10 | > 10 | > 10 | – | 0.605 | > 10 | – | – | 0.667 | 0.612 | – | – | – | 3.42 | 0.761 | 5.76 | 0 | 1.71 | 0 | 0 | 1.13 | 0 | 0.239 | 6.74 | 0.625 | 0 | 0.0698 | 1.42
Nc1nc(F)nc2c1ncn2[C@@H]1O[C@H](CO)[C@@H](O)[C@@H]1O [Fludarabine] | > 10 | > 10 | > 10 | > 10 | > 10 | – | > 10 | > 10 | > 10 | > 10 | – | > 10 | > 10 | > 10 | > 10 | 0 | 0 | 2.13 | 0 | 0 | 0 | 0 | 0 | 0 | 1.23 | 0 | 0 | 0 | 0 | 0
C[C@]12CC[C@@H]3c4ccc(O)cc4C[C@@H](CCCCCCCCC[S+]([O-])CCCC(F)(F)C(F)(F)F)[C@H]3[C@@H]1CC[C@@H]2O (some centres undefined) [Fulvestrant] | > 1 | > 1 | > 1 | > 1 | 0.00643 | – | > 1 | > 1 | 0.045 | > 1 | – | > 1 | > 1 | > 1 | > 1 | 0 | 0 | 0.0366 | 0 | 0 | 0 | 0 | 0 | 7.84 | 0.235 | 0 | 5.21 | 0 | 0 | 0

Second part, led by results:

relative IC50 (BT-474 [2]; 4-OH-tamoxifen in medium 0 µM) [µM] | relative IC50 (BT-474 [2]; 4-OH-tamoxifen in medium 1 µM) [µM] | relative IC50 (T-47D Tam2 [3]) [µM] | relative IC50 (MCF-7 Tam1 [4]) [µM] | relative IC50 (MCF-7 [6]; 4-OH-tamoxifen in medium 0 µM) [µM] | relative IC50 (MCF-7 [6]; 4-OH-tamoxifen in medium 1 µM) [µM] | relative IC50 (T-47D [7]; 4-OH-tamoxifen in medium 0 µM) [µM] | relative IC50 (BT-474 Tam2 [8]) [µM] | relative IC50 (T-47D [7]; 4-OH-tamoxifen in medium 1 µM) [µM] | relative IC50 (BT-474 Tam1 [21]) [µM] | relative IC50 (T-47D Tam1 [22]) [µM] | Compound | relative IC50 (ZR-75-1 [1]; 4-OH-tamoxifen in medium 0 µM) [µM] | relative IC50 (ZR-75-1 [1]; 4-OH-tamoxifen in medium 1 µM) [µM] | relative IC50 (ZR-75-1 Tam2 [5]) [µM] | relative IC50 (ZR-75-1 Tam1 [9]) [µM] | drug sensitivity score (ZR-75-1 [10]; 4-OH-tamoxifen in medium 0 µM) | drug sensitivity score (ZR-75-1 [10]; 4-OH-tamoxifen in medium 1 µM) | drug sensitivity score (T-47D Tam1 [11]) | drug sensitivity score (BT-474 [12]; 4-OH-tamoxifen in medium 0 µM) | drug sensitivity score (BT-474 [12]; 4-OH-tamoxifen in medium 1 µM) | drug sensitivity score (T-47D Tam2 [13]) | drug sensitivity score (MCF-7 Tam1 [14]) | drug sensitivity score (ZR-75-1 Tam2 [15]) | drug sensitivity score (MCF-7 [16]; 4-OH-tamoxifen in medium 0 µM) | drug sensitivity score (MCF-7 [16]; 4-OH-tamoxifen in medium 1 µM) | drug sensitivity score (T-47D [17]; 4-OH-tamoxifen in medium 0 µM) | drug sensitivity score (T-47D [17]; 4-OH-tamoxifen in medium 1 µM) | drug sensitivity score (BT-474 Tam2 [18]) | drug sensitivity score (BT-474 Tam1 [19]) | drug sensitivity score (ZR-75-1 Tam1 [20])
> 1 | > 1 | > 1 | > 1 | – | > 1 | > 1 | > 1 | > 1 | > 1 | – | Cc1cc(Nc2nc(N[C@@H](C)c3ncc(F)cn3)ncc2Cl)[nH]n1 [AZD1480] | > 1 | > 1 | > 1 | > 1 | 0 | 0 | 2.6 | 0 | 0 | 0 | 0 | 0 | 0.0046 | 0 | 0 | 0 | 0 | 0 | 0
> 10 | – | 1.71 | > 10 | – | – | – | > 10 | – | > 10 | – | CC[C@H](Nc1ncnc2[nH]cnc12)c1nc2cccc(F)c2c(=O)n1-c1ccccc1 [CAL-101] | 1.21 | 1.21 | 1.33 | 1.14 | 4.36 | 4.39 | 0.811 | 0 | 0.147 | 2.66 | 0 | 5.82 | 2.04 | 0.584 | 0.0938 | 0.0607 | 0 | 0 | 4.88
